Series [1] deals with H9c2. Description: Cytoprotective activity against OGD-induced myocardial ischemic injury in rat H9c2 cells assessed as cell viability at 5 uM preincubated for 12 hrs followed by exposure to OGD condition for 3 hrs by CCK8 assay (reference value: 49.23 to 50.05 %). The class given is functional. As to conditions: time 15 hrs, read-out: Activity.
Series [2] relates to Cardiac muscle cell. Put plainly: Cytoprotective activity against OGD-induced myocardial ischemic injury in neonatal rat primary cardiomyocytes assessed as decrease in cellular damage at 1 uM preincubated for 12 hrs followed by exposure to OGD condition for 3 hrs. The class given is functional, cell-based. As to conditions: time 15.0 hrs.
Series [3] deals with Mus musculus. Description: Improvement in motor ability in ISO-induced heart failure C57BL/6J mouse assessed as increase in grip strength at 5 to 20 mg/kg/day, po for 14 days. As to conditions: dose 5-20 mg/kg/day, time 14.0 day. The class given is functional, organism-based.
Series [4] deals with Mus musculus. Put plainly: Inhibition of cardiomyocyte hypertrophy in ISO-induced heart failure C57BL/6J mouse at 5 to 20 mg/kg/day, po for 14 days. As to conditions: dose 5-20 mg/kg/day, time 14.0 day. The class given is functional, organism-based.
Series [5] deals with H9c2. Put plainly: Inhibition of cardiomyocyte hypertrophy in rat H9c2 cells assessed as decrease in ISO-induced ANP level at 50 uM by Western blot analysis. The class given is functional, cell-based.
Series [6] relates to Mus musculus. Description: Inhibition of cardiomyocyte hypertrophy in ISO-induced heart failure C57BL/6J mouse assessed as decrease in AKT phosphorylation in heart tissue administered orally daily for 14 days by Western blot analysis. The class given is functional, organism-based. As to conditions: dose 5-20 mg/kg/day, route po, time 14.0 day.
Series [7] concerns H9c2. Description: Inhibition of apoptosis in ISO-treated rat H9c2 cells assessed as decrease in Bax level by Western blot analysis. The class given is functional, cell-based. As to conditions: dose 5-50 µM.
The test system of series [8] is Mus musculus. Put plainly: Inhibition of cardiomyocyte hypertrophy in ISO-induced heart failure C57BL/6J mouse assessed as decrease in Bax level in heart tissue at 5 to 20 mg/kg/day, po for 14 days by Western blot analysis. As to conditions: dose 5-20 mg/kg/day, time 14.0 day. The class given is functional, organism-based.
Series [9] relates to Mus musculus. Description: Inhibition of cardiomyocyte hypertrophy in ISO-induced heart failure C57BL/6J mouse assessed as decrease in GSK-3beta phosphorylation in heart tissue administered orally daily for 14 days by Western blot analysis. The class given is functional, organism-based. As to conditions: dose 5-20 mg/kg/day, route po, time 14.0 day.
For series [10], the system named is Mus musculus. Description: Inhibition of cardiomyocyte hypertrophy in ISO-induced heart failure C57BL/6J mouse assessed as decrease in ratio of p-AKT to AKT levels in heart tissue administered orally daily for 14 days by Western blot analysis. The class given is functional, organism-based. As to conditions: dose 5-20 mg/kg/day, route po, time 14.0 day.
The test system of series [11] is Mus musculus. Description: Inhibition of cardiomyocyte hypertrophy in ISO-induced heart failure C57BL/6J mouse assessed as decrease in ratio of p-PI3K to PI3K levels in heart tissue administered orally daily for 14 days by Western blot analysis. The class given is functional, organism-based. As to conditions: dose 5-20 mg/kg/day, route po, time 14.0 day.
The nature of series [12]: Metabolic stability in human liver microsomes assessed as half life measured for 5 to 60 mins in presence of NADPH by LC-MS/MS analysis. The class given is ADME, Microsome. As to conditions: time 5-60 min.
The nature of series [13]: Metabolic stability in human liver microsomes assessed as intrinsic clearance measured for 5 to 60 mins in presence of NADPH by LC-MS/MS analysis. The class given is ADME, Microsome. As to conditions: time 5-60 min, read-out: CLH.
Series [14] deals with CYP2C9 (Homo sapiens, UniProt P11712). Description: Inhibition of CYP2C9 in human liver microsomes preincubated for 10 mins followed by NADPH addition measured after 10 mins by LC/MS/MS analysis relative to control. The class given is ADME, Microsome. As to conditions: time 20 min.
The target of series [15] is CYP3A4 (Homo sapiens, UniProt P08684). Put plainly: Inhibition of CYP3A4 in human liver microsomes preincubated for 10 mins followed by NADPH addition measured after 10 mins by LC/MS/MS analysis relative to control. The class given is ADME, Microsome. As to conditions: time 20 min.
A short description of series [16]: Cmax in C57/6J mouse at 5 mg/kg, iv measured for 24 hrs. The class given is ADME, organism-based. As to conditions: in vivo.
Series [17] is described as follows: Half life in C57/6J mouse at 5 mg/kg, iv measured for 24 hrs. The class given is ADME, organism-based. As to conditions: in vivo.
A short description of series [18]: Tmax in C57/6J mouse at 20 mg/kg, po measured for 24 hrs. The class given is ADME, organism-based. As to conditions: in vivo.
Series [19] can be described thus: Cmax in C57/6J mouse at 20 mg/kg, po measured for 24 hrs. The class given is ADME, organism-based. As to conditions: in vivo.
Series [20] can be described thus: Oral bioavailability in C57/6J mouse at 20 mg/kg measured for 24 hrs. The class given is ADME, organism-based. As to conditions: in vivo.
A short description of series [21]: Toxicity in C57BL/6J mouse assessed as animal mortality at 400 mg/kg, po administered as single dose measured for 7 days. The class given is organism-based. As to conditions: in vivo, 168 h, time 7 day.
The nature of series [22]: Toxicity in C57BL/6J mouse assessed as signs of morbidity at 400 mg/kg, po administered as single dose measured for 7 days. The class given is organism-based. As to conditions: in vivo, 168 h, time 7 day.

The results in this text go back to ChEMBL document CHEMBL6153118, “Structure Optimization of Natural Product Catalpol to Obtain Novel and Potent Analogs against Heart Failure” (J Med Chem, 2025).

Structures are written as SMILES. Activity calls are given as the source filed them. The calls are words filed in the database; no cut-off is given here.

CYP2C9, sequence (P11712 whole entry): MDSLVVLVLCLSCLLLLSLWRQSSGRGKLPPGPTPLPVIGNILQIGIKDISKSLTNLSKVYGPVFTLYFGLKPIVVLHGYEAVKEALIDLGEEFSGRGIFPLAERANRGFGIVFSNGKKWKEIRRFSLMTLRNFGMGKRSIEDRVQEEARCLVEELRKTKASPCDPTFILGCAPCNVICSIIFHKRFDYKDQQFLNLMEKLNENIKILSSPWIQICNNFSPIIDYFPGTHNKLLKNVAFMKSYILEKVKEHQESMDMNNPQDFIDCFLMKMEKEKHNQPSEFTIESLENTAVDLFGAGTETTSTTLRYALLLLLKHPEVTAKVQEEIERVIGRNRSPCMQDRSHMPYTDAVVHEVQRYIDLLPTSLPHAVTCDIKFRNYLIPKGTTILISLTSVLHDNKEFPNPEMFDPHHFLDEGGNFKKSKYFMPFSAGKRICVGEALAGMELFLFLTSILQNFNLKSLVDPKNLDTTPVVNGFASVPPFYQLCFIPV
CYP3A4, sequence (P08684 whole entry): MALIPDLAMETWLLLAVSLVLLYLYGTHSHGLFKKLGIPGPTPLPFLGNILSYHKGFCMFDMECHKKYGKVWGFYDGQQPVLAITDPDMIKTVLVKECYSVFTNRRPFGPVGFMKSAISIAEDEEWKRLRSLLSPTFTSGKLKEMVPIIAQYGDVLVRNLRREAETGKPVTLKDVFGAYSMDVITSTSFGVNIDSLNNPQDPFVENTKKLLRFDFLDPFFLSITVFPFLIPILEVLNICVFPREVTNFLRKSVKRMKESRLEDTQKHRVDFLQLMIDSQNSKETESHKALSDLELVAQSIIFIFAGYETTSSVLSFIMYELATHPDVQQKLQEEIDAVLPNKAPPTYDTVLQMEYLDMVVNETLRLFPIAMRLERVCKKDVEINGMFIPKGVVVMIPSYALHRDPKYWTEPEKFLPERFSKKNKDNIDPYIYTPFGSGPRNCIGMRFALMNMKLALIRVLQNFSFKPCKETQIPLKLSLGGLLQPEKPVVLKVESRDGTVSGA

Consider `OC[C@H]1O[C@@H](O[C@@H]2OC=C[C@H]3[C@H](O)[C@@H]4O[C@]4(COc4ccc(C(F)(F)F)cc4)[C@@H]23)[C@H](O)[C@@H](O)[C@@H]1O`, for which, in series [1], the viability at 5 µM came out at 64.6%. In addition, the Activity result in [2] is “Active; Exhibited Moderate Effect”; in series [21], “Non-toxic”; in [22] it was “Non-toxic”. Moreover, in series [3], the outcome was Active. Besides, the inhibition result in [4] was “Active; Exhibited Pronounced Therapeutic Effect Compared To Catal-Pol”; in series [6], “Dose-dependent-effect”; in series [7] it was “Dose-dependent-effect”; in series [9], “Dose-dependent-effect”; in series [10], “Dose-dependent-effect”; in [11], “Dose-dependent-effect”. Moreover, the inhibition entry in series [5] and in [8] was “Active” each time. In addition, the half-life in series [12] was > 2.42 h; in series [17], 0.95 h. For the same compound, in series [13], the CLint scaled is < 8.6 mL/min/kg. The inhibition at 10 min in series [14] worked out at 6.3%; in series [15], 0.4%. Further, the figures for the Cmax in [16] and in series [19] were 2710 ng/mL and 505 ng/mL, respectively. Moreover, in series [18], the time to peak (Tmax) was found to be 1.42 h. Besides, the bioavailability in [20] turned out to be 41.8%.
